Counter-ions that a name gives are not always drawn.
In the case of `CN(C)CCNC1=CC(=O)c2sc(C(=O)NCCCN3CCCC3=O)nc2C1=O` [Example 5, 5-{[2-(dimethylamino)ethyl]amino}-4,7-dioxo-N-[3-(2-oxopyrrolidin-1-yl)propyl]-4,7-dihydro-1,3-benzothiazole-2-carboxamide], the melting point is reported as 154 to 156 °C.

`COc1ccc(NC(=O)c2nc3c(s2)C(=O)C=C(NCCN(C)C)C3=O)cc1F` [Example 35, 5-{[2-(dimethylamino)ethyl]amino}-N-(3-fluoro-4-methoxyphenyl)-4,7-dioxo-4,7-dihydro-1,3-benzothiazole-2-carboxamide] gave a melting point of 199 to 200 °C.

Molecule `CN(C)CCNC1=CC(=O)c2sc(C(=O)N3CCOCC3)nc2C1=O` [Example 1, 5-{[2-(dimethylamino)ethyl]amino}-2-(morpholin-4-ylcarbonyl)-1,3-benzothiazole-4,7-dione] has a melting point of 207 to 208 °C.

Work on `COc1ccc(NC(=O)c2nc3c(s2)C(=O)C=C(NCCN(C)C)C3=O)cc1` (as salt: methanesulphonate) [Example 18, 5-{[2-(dimethylamino)ethyl]amino}-N-(4-methoxyphenyl)-4,7-dioxo-4,7-dihydro-1,3-benzothiazole-2-carboxamide] yielded a melting point of 207 to 208 °C.

Molecule `COCCN(CCOC)C(=O)c1nc2c(s1)C(=O)C=C(NCCN(C)C)C2=O` [Example 4, 5-{[2-(dimethylamino)ethyl]amino}-N,N-bis(2-methoxyethyl)-4,7-dioxo-4,7-dihydro-1,3-benzothiazole-2-carboxamide] has a melting point of 92 to 94 °C.

With `CN(C)CCNC1=CC(=O)c2sc(C(=O)N3CCCC3)nc2C1=O` [Example 22, 5-{[2-(dimethylamino)ethyl]amino}-2-(pyrrolidin-1-ylcarbonyl)-1,3-benzothiazole-4,7-dione] the melting point was 207 to 208 °C.

`CN(C)CCNC1=CC(=O)c2sc(C(=O)N3CCN(S(C)(=O)=O)CC3)nc2C1=O` [Example 19, 5-{[2-(dimethylamino)ethyl]amino}-2-{[4-(methylsulphonyl)piperazin-1-yl]carbonyl}-1,3-benzothiazole-4,7-dione] gave a melting point of 201 to 202 °C.

For `CN(C)CCNC1=CC(=O)c2nc(C(=O)N3CCCC3)sc2C1=O` [Example 34, 6-{[2-(dimethylamino)ethyl]amino}-2-(pyrrolidin-1-ylcarbonyl)-1,3-benzothiazole-4,7-dione], the melting point was 224 to 225 °C.

Molecule `CN(C)CCNC1=CC(=O)c2sc(C(=O)NCc3ccccc3)nc2C1=O` [Example 12, N-benzyl-5-{[2-(dimethylamino)ethyl]amino}-4,7-dioxo-4,7-dihydro-1,3-benzothiazole-2-carboxamide] has a melting point of 188 to 189 °C.

Molecule `COc1ccc2c(c1)CCCN2C(=O)c1nc2c(s1)C(=O)C=C(NCCN(C)C)C2=O` [Example 36, 5-{[2-(dimethylamino)ethyl]amino}-2-[(6-methoxy-3,4-dihydroquinolin-1(2H)-yl)carbonyl]-1,3-benzothiazole-4,7-dione] has a melting point of 192 to 193 °C.

In the case of `CCNC(=O)c1nc2c(s1)C(=O)C=C(N(C)CCN(C)C)C2=O` [Example 38, 5-[[2-(dimethylamino)ethyl](methyl)amino]-N-ethyl-4,7-dioxo-4,7-dihydro-1,3-benzothiazole-2-carboxamide], the melting point is reported as 163 to 164 °C.

With `CN(C)CCNC1=C(Br)C(=O)c2sc(C(=O)N3CCN(C(=O)C4CCCO4)CC3)nc2C1=O` (centres unmarked) [Example 21, 6-bromo-5-{[2-(dimethylamino)ethyl]amino}-2-{[4-(tetrahydrofuran-2-ylcarbonyl)piperazin-1-yl]carbonyl}-1,3-benzothiazole-4,7-dione] the melting point was 161 to 162 °C.

`CN(C)CCNC1=CC(=O)c2sc(C(=O)N3CCN(C(=O)N4CCOCC4)CC3)nc2C1=O` [Example 16, 5-{[2-(dimethylamino)ethyl]amino}-2-{[4-(morpholin-4-ylcarbonyl)piperazin-1-yl]carbonyl}-1,3-benzothiazole-4,7-dione] gave a melting point of 211 to 212 °C.

`CCNC(=O)c1nc2c(s1)C(=O)C=C(NCCN(C)C)C2=O` [Example 24, 5-{[2-(dimethylamino)ethyl]amino}-N-ethyl-4,7-dioxo-4,7-dihydro-1,3-benzothiazole-2-carboxamide] showed a melting point of 174 to 175 °C.

In the case of `CN(C)CCNC1=CC(=O)c2sc(C(=O)Nc3ccc4c(c3)OCO4)nc2C1=O` [Example 26, N-1,3-benzodioxol-5-yl-5-{[2-(dimethylamino)ethyl]amino}-4,7-dioxo-4,7-dihydro-1,3-benzothiazole-2-carboxamide], the melting point is reported as 220 to 221 °C.

Work on `CN(C)CCNC1=CC(=O)c2sc(C(=O)Nc3ccc(F)cc3)nc2C1=O` [Example 33, 5-{[2-(dimethylamino)ethyl]amino}-N-(4-fluorophenyl)-4,7-dioxo-4,7-dihydro-1,3-benzothiazole-2-carboxamide] yielded a melting point of 208 to 209 °C.

In the case of `COc1ccc(C(=O)N2CCN(C(=O)c3nc4c(s3)C(=O)C=C(NCCN(C)C)C4=O)CC2)cc1` [Example 37, 5-{[2-(dimethylamino)ethyl]amino}-2-{[4-(4-methoxybenzoyl)piperazin-1-yl]carbonyl}-1,3-benzothiazole-4,7-dione], the melting point is reported as 209 to 210 °C.

Molecule `CC(C)CNC(=O)c1nc2c(s1)C(=O)C=C(NCCN(C)C)C2=O` [Example 7, 5-{[2-(dimethylamino)ethyl]amino}-N-isobutyl-4,7-dioxo-4,7-dihydro-1,3-benzothiazole-2-carboxamide] has a melting point of 163 to 164 °C.

With `CN(C)CCNC1=CC(=O)c2sc(C(=O)NCCOCCOCCNC(=O)OC(C)(C)C)nc2C1=O` [Example 2, tert-butyl {2-[2-(2-{[(5-{[2-(dimethylamino)ethyl]amino}-4,7-dioxo-4,7-dihydro-1,3-benzothiazol-2-yl)carbonyl]amino}ethoxy)ethoxy]ethyl}carbamate] the melting point was 55 to 57 °C.

For `O=C1C(NCCN2CCCC2)=CC(=O)c2sc(C(=O)N3CCN(C(=O)N4CCOCC4)CC3)nc21` [Example 17, 2-{[4-(morpholin-4-ylcarbonyl)piperazin-1-yl]carbonyl}-5-[(2-pyrrolidin-1-ylethyl)amino]-1,3-benzothiazole-4,7-dione], the melting point was 193 to 194 °C.

`CN(C)CCNC1=CC(=O)c2sc(C(=O)NCC3CCCCC3)nc2C1=O` [Example 13, N-(cyclohexylmethyl)-5-{[2-(dimethylamino)ethyl]amino}-4,7-dioxo-4,7-dihydro-1,3-benzothiazole-2-carboxamide] gave a melting point of 171 to 172 °C.

In the case of `CN(C)CCNC1=CC(=O)c2sc(C(=O)N3CCN(C(=O)C4CCCO4)CC3)nc2C1=O` (centres unmarked) [Example 20, 5-{[2-(dimethylamino)ethyl]amino}-2-{[4-(tetrahydrofuran-2-ylcarbonyl)piperazin-1-yl]carbonyl}-1,3-benzothiazole-4,7-dione], the melting point is reported as 168 to 169 °C.

For `CCNC(=O)c1nc2c(s1)C(=O)C=C(NCCc1ccc(F)cc1)C2=O` [Example 39, N-ethyl-5-{[2-(4-fluorophenyl)ethyl]amino}-4,7-dioxo-4,7-dihydro-1,3-benzothiazole-2-carboxamide], the melting point was 260 to 261 °C.

From patent US7795284B2, “4,7-dioxobenzothiazole-2-carboxamide derivatives, their preparation and their therapeutic uses” (Ipsen Pharma S.A.S., priority 2004, dated 2010)
